From patent publication US10398747B2, “Composition comprising the extract of herbal combination for preventing or treating diabetic peripheral neuropathy” (DONG-A ST CO., LTD., priority 2011, dated 2019)

Assays:
[1] = test system: nerve growth factor (NGF); experiment: Test for in vivo level of nerve growth factor in normal mouse model (ELISA); settings: normal male ICR mice
Description: Ability of the crude extract with 50% ethanol in Example 1 to induce the secretion of nerve growth factor in vivo was evaluates (O. Arrieta and J. Sotelo et al., Retinoic acid increased tissue and plasma contents of nerve growth factor and prevents neuropathy in diabetic mice. European Journal of Clinical Investigation (2005) 35).
Male ICR mice, each weighing 25-30 g, were acclimated for 1 week at 22-24° C. at a relative humidity of 60-80% while being fed with water and a standard diet. They were divided into groups according to weight. The extracts prepared in the above Examples were orally administered in predetermined amounts to the mice, with Gabapentin used as a positive control at a doe of 100 mg/kg. 16 hours after which blood was sampled from the mice. They were then sacrificed to obtain the sciatic nerve and the salivary glands.
After the blood samples were centrifuged at 10,000 rpm for 10 min, the levels of nerve growth factor in the plasma thus separated were measured by ELISA (ABS 440 nm). The sciatic nerve and the salivary glands were weighed and a solution containing 100 mM Tris-HCl, 1M NaCl, 2% BSA, 4 mM EDTA, 2.0% Trtion®X-100, 0.02% sodium azide, 0.1 mg/ml pepstatin A, 5 mg/ml aprotonin, 0.5 mg/ml antipain, 167 mg/ml benzamidine, and 5.2 mg/ml PMSF was added in amounts proportional to the weights, followed by homogenization. The homogenates were incubated for 15 min with 1N HCl in an amount of 1 μl/50 μl for oxidization and neutralized with 1N NaOH in an amount of 1 μl/50 μl. Centrifugation was performed at 10,000 rpm for 10 min to obtain supernatants. Like plasma, the sciatic nerve and the salivary glands were quantitatively analyzed for the level of nerve growth factor.

[2] = test system: nerve growth factor (NGF); experiment: NGF level in sciatic nerve and salivary gland of SD male rats with streptozotocin-induced type 1 diabetes (ELISA); type: in vivo, rat; settings: streptozotocin-diabetic SD male rats
Description: SD male rats, each weighing 220^˜250 g, were acclimated for one week at 22-24° C. at a relative humidity of 60-80% with standard diet and water fed thereto. Thereafter, a solution of streptozotocin in saline was intravenously administered once at a dose of 50 mg/kg to the rats to induce type 1 diabetes. Four weeks after the induction of diabetes, rats were divided into groups according to blood sugar level. The extracts prepared in the above Examples were orally administered once a day for 8 weeks at predetermined doses to the rats, while α-lipoic acid and Gabapentin were used as positive controls at does of 50 mg/kg and 100 mg/kg, respectively. Then, they were sacrificed to obtain the sciatic nerve and the salivary glands. The sciatic nerve and the salivary glands were processed in the same manner as in Test Example 1 and measured for NGF level by ELISA.

[3] = test system: SD male rats with streptozotocin-induced type 1 diabetes; experiment: Randall-Sellito test, threshold response to pressure on a paw, streptozotocin-diabetic SD rats; type: in vivo, rat
Description: (§1) The ability of the extracts to alleviate the pain caused by diabetic neuropathy was examined. In this regard, rats with streptozotocin-induced diabetes were separated and orally administered with the extracts at a predetermined dose once a day for 14 weeks, with α-lipoic acid 50 mg/kg and Gabapentin 100 mg/kg serving as positive controls. A Randall-Sellito test was performed to measure a threshold response to pressure on a paw. The latent time taken to respond to a thermal pain was measured using a tail-flick test. In order to evaluate the neurodegeneration which had progressed with the onset of diabetic neuropathy, the sciatic nerve taken from the rats of each group was fixed with formalin and observed under an electron microscope to measure the size and thickness of the myelin sheath, and the results are summarized in Table 9.
(§2) An increase in threshold to mechanical stimuli delineates an increase in threshold to pain. In the tail flick test, an increase in latent time to pain response corresponds to an increase in threshold to thermal stimuli, indicating the alleviation of pain.

[4] = test system: SD male rats with streptozotocin-induced type 1 diabetes; experiment: Tail-flick test, latent time to thermal pain, streptozotocin-diabetic SD rats; type: in vivo, rat
Description: as §1, §2

[5] = test system: SD male rats with streptozotocin-induced type 1 diabetes; experiment: Neurodegeneration: size and thickness of myelin sheath of sciatic nerve by electron microscope, streptozotocin-diabetic SD rats; type: in vivo, rat
Description: as §1

[6] = test system: ICR male mice with streptozotocin-induced type 1 diabetes; experiment: 58° C. hot plate test, ICR male mice with streptozotocin-induced type 1 diabetes; type: in vivo, mouse; settings: streptozotocin-diabetic ICR male mice
Description: (§3) ICR male mice, each weighing 25^˜30 g, were acclimated for one week at 22-24° C. at a relative humidity of 60-80%, with a standard diet and water fed thereto. Thereafter, a solution of streptozotocin in saline was intravenously administered once at a dose of 200 mg/kg to the mice to induce type 1 diabetes. Four weeks after the induction of diabetes, rats were divided into groups according to blood sugar level. The extracts prepared in the above Examples were orally administered once a day for 14 weeks at predetermined doses to the mice, while α-lipoic acid and Gabapentin were used as positive controls at a dose of 50 mg/kg and 100 mg/kg, respectively. Mice in each group were placed on a 58° C. hot plate, and examined for hyperalgesia to heat stimulus by measuring the latent time it took for the mice to feel a heat pain on their foot soles and jump.

[7] = test system: nerve growth factor (NGF); experiment: NGF level in sciatic nerve and salivary gland of ICR male mice with streptozotocin-induced type 1 diabetes (ELISA); type: in vivo, mouse; settings: streptozotocin-diabetic ICR male mice
Description: as §3
Then, the mice were sacrificed to obtain the sciatic nerve and the salivary glands therefrom. The sciatic nerve and the salivary glands were processed in the same manner as in Test Example 1 and measured for NGF level by ELISA.

[8] = test system: db/db male mice with type 2 diabetes; experiment: 58° C. hot plate test, db/db male mice with type 2 diabetes; type: in vivo, mouse
Description: (§4) db/db Male mice, each weighing 40^˜45 g, were acclimated for one week at 22-24° C. at a relative humidity of 60-80%, with a standard diet and water fed thereto. On the day of the 9th week after birth, the mice in which diabetes had been induced were selected. Four weeks later, mice suffering from type 2 diabetes were separated according to blood sugar level. The extracts prepared in the above Examples were orally administered once a day for 12 weeks at predetermined doses to the mice, while α-lipoic acid and gabapentin were used as positive controls at a dose of 50 mg/kg and 100 mg/kg, respectively. Mice in each group were placed on a 58° C. hot plate, and examined for hyperalgesia to heat stimulus by measuring the latent time it took for the mice to feel a heat pain on their foot soles and jump.

[9] = test system: nerve growth factor (NGF); experiment: NGF level in sciatic nerve of db/db male mice with type 2 diabetes (ELISA); type: in vivo, mouse
Description: as §4
Then, the mice were sacrificed to obtain the sciatic nerve therefrom. The sciatic nerve was processed in the same manner as in Test Example 1 and its NGF level was measured by ELISA.

[10] = test system: PC12 nerve cells; experiment: Growth of PC12 nerve cells (MTS assay); type: cell-based, rat; settings: 48 hours
Description: For use in a test for ability to induce nerve cell growth, PC12 nerve cells were seeded at the same density per well into plates and incubated for 24 hours.

[11] = test system: TrkA (NGF receptor); experiment: Phosphorylation of NGF receptor in PC12 nerve cells (Western blotting); type: cell-based, rat; settings: 48 hours
Description: For use in this test, PC12 nerve cells were seeded at the same density per well into plates and incubated for 24 hours. The cells were washed with PBS and cultured for 48 hours in culture media supplemented with the herb extracts of Example 1 or Comparative Examples 1 to 10 or NGF. Thereafter, phosphorylated TrkA (NGF receptor) were detected using Western blotting, and quantitatively analyzed on the basis of the thickness of the detected bands.
NGF signaling starts with the binding of NGF to its receptor (Trk-A), which results in the phosphorylation of the receptor. Thus, an increased level of phosphorylated NGF receptors means the amplification of the NGF signaling pathway.

[12] = test system: DRG (Dorsal root ganglion) nerve cells; experiment: Growth of neurites in rat-derived DRG nerve cells (neurite area under microscope); type: cell-based; settings: rat embryo DRG cells, 48 hours
Description: For use in this test, DRG nerve cells were seeded at the same density into plates and incubated for 24 hours. Thereafter, the cells were washed with PBS and cultured for 48 hours in a culture medium in the absence or presence of a combination of the extract of Example 1 or Comparative Examples 1 to 10, and NGF. The nerve cells in each group were observed under a microscope to measure the area of the neurites grown therein.

[13] = oral 100 mg/kg, 16 hours after dosing
[14] = oral 100 mg/kg once a day for 8 weeks
[15] = oral 100 mg/kg once a day for 14 weeks
[16] = oral 100 mg/kg once a day for 12 weeks
[17] = 50 mg/kg once a day for 8 weeks
[18] = 50 mg/kg once a day for 14 weeks
[19] = 50 mg/kg once a day for 12 weeks

NCC1(CC(=O)O)CCCCC1 [Gabapentin]
NGF Level in Plasma [1, 13]: 610.4 pg/mL
NGF Level in Salivary Gland [1, 13]: 193.1 ng/mg
NGF Level in Sciatic Nerve [1, 13]: 4.2 pg/mg
NGF Level Salivary Gland [2, 14]: 2.4 ng/mg
NGF Level Sciatic Nerve [2, 14]: 14.9 pg/mg
Pressure Pain Threshold [3, 15]: 137.7 g
Latent Time to Pain Reaction [4, 15]: 7.7 s
Size of Myelin sheath ([5]; 100 mg/kg): 10.4 μm
Thickness of Myelin sheath ([5]; 100 mg/kg): 2.2 μm
Latent Time to Pain Response on 58° C. Hot Plate [6, 15]: 33.0 s
NGF Level Salivary Gland [7, 15]: 117.1 ng/mg
NGF Level Sciatic Nerve [7, 15]: 5.5 pg/mg
Latent Time to Pain Response on 58° C. Hot Plate [8, 16]: 16.1 s
NGF Level in Sciatic Nerve [9, 16]: 7.2 pg/mg

O=C(O)CCCCC1CCSS1 (stereo not drawn) [α-Lipoic acid]
NGF Level in Salivary Gland ([1]; 50 mg/kg): 164.4 ng/mg
NGF Level in Sciatic Nerve ([1]; 50 mg/kg): 5.0 pg/mg
NGF Level Salivary Gland [2, 17]: 2.8 ng/mg
NGF Level Sciatic Nerve [2, 17]: 13.8 pg/mg
Pressure Pain Threshold [3, 18]: 150.0 g
Latent Time to Pain Reaction [4, 18]: 7.4 s
Size of Myelin sheath ([5]; 50 mg/kg): 11.2 μm
Thickness of Myelin sheath ([5]; 50 mg/kg): 2.6 μm
Latent Time to Pain Response on 58° C. Hot Plate [6, 18]: 31.1 s
NGF Level Salivary Gland [7, 18]: 118.7 ng/mg
NGF Level Sciatic Nerve [7, 18]: 5.7 pg/mg
Latent Time to Pain Response on 58° C. Hot Plate [8, 19]: 15.4 s
NGF Level in Sciatic Nerve [9, 19]: 7.6 pg/mg

NGF: nerve growth factor added to culture media
Proliferative Effect on Nerve Cell ([10]; 2 ng/ml): 112 % of control
Proliferative Effect on Nerve Cell ([10]; 50 ng/ml): 118 % of control
Relative Amount of Phosphorylated NGF ([11]; NGF 2 ng/ml alone): 241 % of control
Relative Amount of Phosphorylated NGF ([11]; NGF 50 ng/ml alone): 337 % of control
Neurite Area of DRG Nerve Cell ([12]; NGF 2 ng/ml alone): 235 μm^2
Neurite Area of DRG Nerve Cell ([12]; NGF 50 ng/ml alone): 461 μm^2
